Measured values from paper PMC12423841 (ACS Omega, 2025).

Assays:
[1] = biological target: protein S (S:D614G) (Severe acute respiratory syndrome coronavirus 2, UniProt P0DTC2, D614G); design: species or system SARS-CoV-2
[2] = biological target: SWuhan (SARS-CoV-2 S protein HexaPro, Wuhan-Hu-1 variant) (Severe acute respiratory syndrome coronavirus 2, UniProt P0DTC2, A892P/A899P/A942P/F817P/K986P/V987P); assay type: binding; settings: read-out: K D values SWuhan
[3] = biological target: SBA.1 (SARS-CoV-2 S protein, Omicron BA.1 variant) (Severe acute respiratory syndrome coronavirus 2, UniProt P0DTC2, A67V/D614G/D796Y/DEL143-145/DEL211-211/DEL69-70/E484A/G142D/G339D/G446S/G496S/H655Y/INS214EPE/K417N/L212I/L981F/N440K/N501Y/N679K/N764K/N856K/N969K/P681H/Q493R/Q498R/Q954H/S371L/S373P/S375F/S477N/T478K/T547K/T95I/Y505H, form not given); assay type: binding; settings: read-out: K D values SBA.1
[4] = biological target: RBDWuhan (SARS-CoV-2 spike RBD, Wuhan-Hu-1 variant) (Severe acute respiratory syndrome coronavirus 2, UniProt P0DTC2); assay type: binding; settings: read-out: K D values RBDWuhan
[5] = biological target: RBDBA.1 (SARS-CoV-2 spike RBD, Omicron BA.1 variant) (Severe acute respiratory syndrome coronavirus 2, UniProt P0DTC2, E484A/G339D/G446S/G496S/K417N/N440K/N501Y/Q493R/Q498R/S371L/S373P/S375F/S477N/T478K/Y505H); assay type: binding; settings: read-out: K D values RBDBA.1

Compound	architecture of spikes by negative-stain electron microscopy [1]	Kd [2] [µM]	Kd [3] [µM]	Kd [4] [µM]	Kd [5] [µM]
CCCCCCCCc1ccc(CCC(N)(CO)CO)cc1 [fingolimod]	do not damage the architecture of the proteins				
catechin		927 ± 76	> 1000	> 1000	> 1000
